Test results published in PubChem BioAssay (NCI).
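Cultured in 96-well plates, cells were exposed to test compound for 48 hours across five concentrations. TGI is the concentration that stops growth completely.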

Key:
Experiment in all cases: NCI-60 cell line screen, 48 h
RXF-631 renal = test system: RXF-631 renal
A498 renal = test system: A498 renal
U251 CNS = test system: U251 CNS
COLO 205 colon = test system: COLO 205 colon
786-0 renal = test system: 786-0 renal
HL-60(TB) leukemia = test system: HL-60(TB) leukemia
SF-268 CNS = test system: SF-268 CNS
MALME-3M melanoma = test system: MALME-3M melanoma
NCI-H23 lung = test system: NCI-H23 lung
SF-539 CNS = test system: SF-539 CNS
SK-MEL-28 melanoma = test system: SK-MEL-28 melanoma
HCC-2998 colon = test system: HCC-2998 colon
SW-620 colon = test system: SW-620 colon
HOP-62 NSCLC = test system: HOP-62 NSCLC
OVCAR-4 ovarian = test system: OVCAR-4 ovarian
NCI-H522 lung = test system: NCI-H522 lung
SK-MEL-2 melanoma = test system: SK-MEL-2 melanoma
SF-295 CNS = test system: SF-295 CNS
OVCAR-3 ovarian = test system: OVCAR-3 ovarian
SNB-75 CNS = test system: SNB-75 CNS
CAKI-1 renal = test system: CAKI-1 renal
HT29 colon = test system: HT29 colon
KM20L2 colon = test system: KM20L2 colon
MOLT-4 leukemia = test system: MOLT-4 leukemia
DMS 273 small cell lung = test system: DMS 273 small cell lung
EKVX NSCLC = test system: EKVX NSCLC
M19-MEL melanoma = test system: M19-MEL melanoma
TK-10 renal = test system: TK-10 renal
A549 NSCLC = test system: A549 NSCLC
NCI-H460 lung = test system: NCI-H460 lung
M14 melanoma = test system: M14 melanoma
ACHN renal = test system: ACHN renal
SNB-19 CNS = test system: SNB-19 CNS
LXFL 529 NSCLC = test system: LXFL 529 NSCLC
CCRF-CEM leukemia = test system: CCRF-CEM leukemia
RPMI-8226 leukemia = test system: RPMI-8226 leukemia
UO-31 renal = test system: UO-31 renal
HOP-92 NSCLC = test system: HOP-92 NSCLC
OVCAR-5 ovarian = test system: OVCAR-5 ovarian
SNB-78 CNS = test system: SNB-78 CNS
UACC-257 melanoma = test system: UACC-257 melanoma
SN12C renal = test system: SN12C renal
IGROV1 ovarian = test system: IGROV1 ovarian
RXF 393 renal = test system: RXF 393 renal
LOX IMVI melanoma = test system: LOX IMVI melanoma
DLD-1 colon = test system: DLD-1 colon
K-562 leukemia = test system: K-562 leukemia
OVCAR-8 ovarian = test system: OVCAR-8 ovarian
NCI-H226 lung = test system: NCI-H226 lung
XF 498 CNS = test system: XF 498 CNS
KM12 colon = test system: KM12 colon
SK-MEL-5 melanoma = test system: SK-MEL-5 melanoma
SK-OV-3 ovarian = test system: SK-OV-3 ovarian
SR leukemia = test system: SR leukemia
HCT-116 colon = test system: HCT-116 colon
HCT-15 colon = test system: HCT-15 colon
UACC-62 melanoma = test system: UACC-62 melanoma
DMS 114 small cell lung = test system: DMS 114 small cell lung

Question: Which results are given for CCc1cccc(C)c1NC(=O)C1=C(C)NC(C)=C(C(=O)Nc2c(C)cccc2CC)C1c1ccc([N+](=O)[O-])cc1?
Answer: TGI (RXF-631 renal): > 100 µM; TGI (A498 renal): > 100 µM; TGI (U251 CNS): > 100 µM; TGI (COLO 205 colon): > 100 µM; TGI (786-0 renal): > 100 µM; TGI (HL-60(TB) leukemia): 49.5 µM; TGI (SF-268 CNS): > 100 µM; TGI (MALME-3M melanoma): > 100 µM; TGI (NCI-H23 lung): > 100 µM; TGI (SF-539 CNS): > 100 µM; TGI (SK-MEL-28 melanoma): > 100 µM; TGI (HCC-2998 colon): > 100 µM; TGI (SW-620 colon): > 100 µM; TGI (HOP-62 NSCLC): > 100 µM; TGI (OVCAR-4 ovarian): > 100 µM; TGI (NCI-H522 lung): 68.3 µM; TGI (SK-MEL-2 melanoma): > 100 µM; TGI (SF-295 CNS): > 100 µM; TGI (OVCAR-3 ovarian): > 100 µM; TGI (SNB-75 CNS): > 100 µM; TGI (CAKI-1 renal): 89.6 µM; TGI (HT29 colon): > 100 µM; TGI (KM20L2 colon): > 100 µM; TGI (MOLT-4 leukemia): 46.6 µM; TGI (DMS 273 small cell lung): > 100 µM; TGI (EKVX NSCLC): > 100 µM; TGI (M19-MEL melanoma): > 100 µM; TGI (TK-10 renal): > 100 µM; TGI (A549 NSCLC): > 100 µM; TGI (NCI-H460 lung): > 100 µM; TGI (M14 melanoma): > 100 µM; TGI (ACHN renal): > 100 µM; TGI (SNB-19 CNS): > 100 µM; TGI (LXFL 529 NSCLC): > 100 µM; TGI (CCRF-CEM leukemia): > 100 µM; TGI (RPMI-8226 leukemia): 57.3 µM; TGI (UO-31 renal): > 100 µM; TGI (HOP-92 NSCLC): 30.1 µM; TGI (OVCAR-5 ovarian): > 100 µM; TGI (SNB-78 CNS): > 100 µM; TGI (UACC-257 melanoma): > 100 µM; TGI (SN12C renal): > 100 µM; TGI (IGROV1 ovarian): > 100 µM; TGI (RXF 393 renal): > 100 µM; TGI (LOX IMVI melanoma): > 100 µM; TGI (DLD-1 colon): > 100 µM; TGI (K-562 leukemia): > 100 µM; TGI (OVCAR-8 ovarian): > 100 µM; TGI (NCI-H226 lung): > 100 µM; TGI (XF 498 CNS): 66.9 µM; TGI (KM12 colon): > 100 µM; TGI (SK-MEL-5 melanoma): > 100 µM; TGI (SK-OV-3 ovarian): > 100 µM

Question: With Nc1ccc(C(c2ccccc2)(c2ccccc2)c2ccccc2)cc1 as the molecule, how does the TGI (RXF-631 renal) read?
Answer: > 100 µM

Question: What about the TGI (A498 renal) of the same molecule?
Answer: > 100 µM

Question: What about the TGI (U251 CNS) of the same molecule?
Answer: 62.1 µM

Question: And the TGI (COLO 205 colon)?
Answer: > 100 µM

Question: And the TGI (786-0 renal)?
Answer: > 100 µM

Question: And the TGI (HL-60(TB) leukemia)?
Answer: 91.6 µM

Question: And the TGI (SF-268 CNS)?
Answer: > 100 µM

Question: What about the TGI (MALME-3M melanoma) of the same molecule?
Answer: > 100 µM

Question: And the TGI (NCI-H23 lung)?
Answer: 88.4 µM

Question: What about the TGI (SF-539 CNS) of the same molecule?
Answer: > 100 µM

Question: What about the TGI (SK-MEL-28 melanoma) of the same molecule?
Answer: 56.1 µM

Question: What about the TGI (HCC-2998 colon) of the same molecule?
Answer: > 100 µM

Question: What about the TGI (SW-620 colon) of the same molecule?
Answer: > 100 µM

Question: What about the TGI (HOP-62 NSCLC) of the same molecule?
Answer: 75.8 µM

Question: And the TGI (OVCAR-4 ovarian)?
Answer: > 100 µM

Question: And the TGI (SR leukemia)?
Answer: > 100 µM

Question: And the TGI (SK-MEL-2 melanoma)?
Answer: > 100 µM

Question: What about the TGI (SF-295 CNS) of the same molecule?
Answer: 34.4 µM

Question: And the TGI (OVCAR-3 ovarian)?
Answer: > 100 µM

Question: What about the TGI (SNB-75 CNS) of the same molecule?
Answer: 53.9 µM

Question: What about the TGI (HT29 colon) of the same molecule?
Answer: > 100 µM

Question: What about the TGI (MOLT-4 leukemia) of the same molecule?
Answer: > 100 µM

Question: What about the TGI (DMS 273 small cell lung) of the same molecule?
Answer: > 100 µM

Question: What about the TGI (EKVX NSCLC) of the same molecule?
Answer: > 100 µM

Question: And the TGI (HCT-116 colon)?
Answer: > 100 µM

Question: And the TGI (M19-MEL melanoma)?
Answer: > 100 µM

Question: What about the TGI (TK-10 renal) of the same molecule?
Answer: 95.3 µM

Question: What about the TGI (A549 NSCLC) of the same molecule?
Answer: > 100 µM

Question: What about the TGI (NCI-H460 lung) of the same molecule?
Answer: > 100 µM

Question: What about the TGI (M14 melanoma) of the same molecule?
Answer: 30.1 µM

Question: What about the TGI (ACHN renal) of the same molecule?
Answer: > 100 µM

Question: And the TGI (HCT-15 colon)?
Answer: > 100 µM

Question: And the TGI (UACC-62 melanoma)?
Answer: 41.3 µM

Question: What about the TGI (LXFL 529 NSCLC) of the same molecule?
Answer: > 100 µM

Question: And the TGI (CCRF-CEM leukemia)?
Answer: > 100 µM

Question: What about the TGI (RPMI-8226 leukemia) of the same molecule?
Answer: > 100 µM

Question: And the TGI (HOP-92 NSCLC)?
Answer: 31.1 µM

Question: What about the TGI (SNB-78 CNS) of the same molecule?
Answer: 77 µM

Question: And the TGI (UACC-257 melanoma)?
Answer: > 100 µM

Question: What about the TGI (SN12C renal) of the same molecule?
Answer: > 100 µM

Question: And the TGI (IGROV1 ovarian)?
Answer: > 100 µM

Question: And the TGI (RXF 393 renal)?
Answer: 56 µM

Question: And the TGI (LOX IMVI melanoma)?
Answer: > 100 µM

Question: What about the TGI (DLD-1 colon) of the same molecule?
Answer: > 100 µM

Question: And the TGI (K-562 leukemia)?
Answer: > 100 µM

Question: What about the TGI (OVCAR-8 ovarian) of the same molecule?
Answer: > 100 µM

Question: What about the TGI (DMS 114 small cell lung) of the same molecule?
Answer: > 100 µM

Question: What about the TGI (XF 498 CNS) of the same molecule?
Answer: 41.1 µM

Question: And the TGI (KM12 colon)?
Answer: > 100 µM

Question: What about the TGI (SK-MEL-5 melanoma) of the same molecule?
Answer: > 100 µM

Question: And the TGI (SK-OV-3 ovarian)?
Answer: 35.7 µM
